Measured values as given in patent US10670605B2, “Cysteine reactive probes and uses thereof” (The Scripps Research Institute, priority 2015, dated 2020).

Experiments:
[1] = target: T1, MLTK (ZAK) C22 (Homo sapiens, UniProt Q9NYL2); experiment: Blockade of ibrutinib-derived probe 59 labeling of MLTK (gel-based ABPP); format: binding; conditions: read-out: IC50 for blockade of ibrutinib probe 59 labeling of MLTK; recombinant MLTK in HEK293T lysate
T1 construct: expressed in transfected cells
Protocol: CuAAC was performed with 20 μM rhodamine-azide (50× stock in DMSO), 1 mM tris(2-carboxyethyl)phosphine hydrochloride (TCEP; fresh 50× stock in water, final concentration=1 mM), ligand (17× stock in DMSO:t-butanol 1:4, final concentration=100 μM) and 1 mM CuSO4 (50× stock in water, final concentration=1 mM). […] Quenched reactions were analyzed by SDS-PAGE and visualized by in-gel fluorescence. […] For MLTK, HEK 293T cells stably overexpressing MTLK^2 were treated with the indicated fragment electrophiles for 1 h, followed by labeling with 59 (1 μl, of 125 μM, final concentration=5 μM) for 1 h. These were followed by CuAAC conjugation to rhodamine-azide and evaluation by SDS-PAGE as described above.

[2] = target: T2, MLTK (Homo sapiens, UniProt Q9NYL2); experiment: MLTK in vitro kinase activity assay; format: biochemical; conditions: WT-MLTK, 100 μM fragment
T2 construct: expressed in transfected cells
T2 sequence (Q9NYL2 whole entry, the tested form may be a part): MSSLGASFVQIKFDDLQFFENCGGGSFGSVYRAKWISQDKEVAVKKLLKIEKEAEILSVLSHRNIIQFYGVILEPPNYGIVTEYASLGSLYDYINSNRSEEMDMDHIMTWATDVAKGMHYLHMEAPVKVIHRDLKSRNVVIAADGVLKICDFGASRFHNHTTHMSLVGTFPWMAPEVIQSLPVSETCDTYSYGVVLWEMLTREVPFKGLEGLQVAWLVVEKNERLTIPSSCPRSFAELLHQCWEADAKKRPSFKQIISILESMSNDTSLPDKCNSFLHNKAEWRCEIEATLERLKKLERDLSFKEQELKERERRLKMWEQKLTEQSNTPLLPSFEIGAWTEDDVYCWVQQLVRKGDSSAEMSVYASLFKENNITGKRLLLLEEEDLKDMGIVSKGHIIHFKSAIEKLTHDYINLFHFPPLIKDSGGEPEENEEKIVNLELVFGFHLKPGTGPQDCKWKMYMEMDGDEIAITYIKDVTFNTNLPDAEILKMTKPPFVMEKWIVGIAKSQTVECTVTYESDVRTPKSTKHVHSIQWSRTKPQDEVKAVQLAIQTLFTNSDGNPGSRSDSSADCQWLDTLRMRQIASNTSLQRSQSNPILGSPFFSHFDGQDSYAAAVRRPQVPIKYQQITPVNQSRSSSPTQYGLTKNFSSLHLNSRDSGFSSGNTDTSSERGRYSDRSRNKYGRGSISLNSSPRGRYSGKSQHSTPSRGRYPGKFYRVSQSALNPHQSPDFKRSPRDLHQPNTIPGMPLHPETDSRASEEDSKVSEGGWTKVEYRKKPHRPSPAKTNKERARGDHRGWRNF
Protocol: (§1) The kinase activity assay protocol was conducted as described in Wang et al. ACS Chemical biology 9:2194-2198 (2014). Kinase assay buffers, myelin basic protein (MBP) substrate and ATP stock solution were purchased from SignalChem. Radio-labeled [γ-^33P] ATP was purchased from PerkinElmer. 250 μL of HEK-293T soluble lysates (8 mg/mL), stably overexpressing WT, C22A or K45M MLTK were labeled for 1 h with 100 μM fragment or DMSO. The samples were then individually immunoprecipitated with 20 μL flag resin slurry per sample and then eluted with 15 μL 3×Flag-peptide. To each sample was added 5 μL of MBP and then 5 μL of [γ-^33P] ATP assay cocktail (250 μM, 167 μCi/mL) was added to initiate the kinase reaction. Each reaction mixture was incubated at ambient temperature for 30 min, and the reactions were terminated by spotting 25 μL of the reaction mixture onto individual precut phosphocellulose P81 paper. The spotted P81 strips were washed with 10 mL of 1% phosphoric acid (3×10 min). MLTK activity was measured by counting the radioactivity on the P81 paper in the presence of scintillation fluid in a scintillation counter. […] Relative activities for WT and C22A were normalized to their respective DMSO treated samples. Experiments were performed in triplicate.

[3] = target: T3, MLTK (Homo sapiens, UniProt Q9NYL2, C22A); experiment: MLTK in vitro kinase activity assay; format: biochemical; conditions: C22A-MLTK, 100 μM fragment
T3 construct: expressed in transfected cells
T3 sequence (Q9NYL2 whole entry C22A, the tested form may be a part): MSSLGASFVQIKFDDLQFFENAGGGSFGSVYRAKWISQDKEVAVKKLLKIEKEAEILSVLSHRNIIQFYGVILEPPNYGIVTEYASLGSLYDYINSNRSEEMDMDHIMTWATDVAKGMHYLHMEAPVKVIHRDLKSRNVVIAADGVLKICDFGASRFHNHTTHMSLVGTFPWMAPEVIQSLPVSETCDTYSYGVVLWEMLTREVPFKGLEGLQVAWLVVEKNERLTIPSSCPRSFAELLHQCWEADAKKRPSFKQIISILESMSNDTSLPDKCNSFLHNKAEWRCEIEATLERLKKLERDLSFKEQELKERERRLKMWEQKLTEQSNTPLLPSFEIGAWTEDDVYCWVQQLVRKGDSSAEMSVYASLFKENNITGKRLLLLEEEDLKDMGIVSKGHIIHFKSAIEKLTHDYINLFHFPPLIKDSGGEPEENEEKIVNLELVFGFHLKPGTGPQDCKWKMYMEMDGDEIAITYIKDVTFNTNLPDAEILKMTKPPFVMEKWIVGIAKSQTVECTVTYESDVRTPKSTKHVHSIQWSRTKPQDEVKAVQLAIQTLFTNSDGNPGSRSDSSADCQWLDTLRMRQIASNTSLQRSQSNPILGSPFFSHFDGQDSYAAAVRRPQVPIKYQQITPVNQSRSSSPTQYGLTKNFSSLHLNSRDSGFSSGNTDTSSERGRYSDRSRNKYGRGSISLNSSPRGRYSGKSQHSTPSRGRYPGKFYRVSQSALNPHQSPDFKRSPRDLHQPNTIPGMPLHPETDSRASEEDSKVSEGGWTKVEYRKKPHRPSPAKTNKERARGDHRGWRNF
Protocol: as §1

[4] = system: IMPDH2 (C140); experiment: Click probe 18 labeling of recombinant IMPDH2 and its competition; format: binding, human; conditions: probe 25 μM
[5] = system: protein targets in MDA-MB-231 cells; experiment: Whole protein capture with click probes (SILAC proteomics), native vs heat denatured; format: binding, human; conditions: proteins liganded by parent fragment (3 / 14) and enriched by click probe (19 / 18)
Protocol: Protein enrichment by 18 and 19 was measured by whole protein capture of isotopically-SILAC labeled MDA-MB-231 cells using quantitative (SILAC) proteomics.

T1 sequence (Q9NYL2 whole entry): as the sequence (Q9NYL2 whole entry, the tested form may be a part) above

IC50 [1]	catalytic activity of MLTK (substrate phosphorylation) [2]	inhibitory effect on C22A-MLTK mutant [3]	Compound	direct labeling of IMPDH2 WT and mutants by click probe [4]	percentage of quantified protein targets sensitive to heat denaturation [5]
2600 nM	blocked the catalytic activity	not observed	O=C(CCl)N1N=C(c2ccco2)CC1c1cc2ccccc2o1 (centres unmarked) [compound 60]	–	–
–	–	–	C#CCCCCNC(=O)c1cc(NC(=O)C=C)cc(C(F)(F)F)c1 [compound 18]	labeled WT-IMPDH2 and a C331S-IMPDH2 mutant, but not the C140S or C140S/C331S mutants	73%
